Measured values as given in US10709709B2, “Substituted carbonucleoside derivatives useful as anticancer agents” (Pfizer Inc., priority 2016, dated 2020).

Target: PRMT5/MEP50 protein complex (Homo sapiens (Human), UniProt O14744)
Test: PRMT5 biochemical assay (3H-SAM methylation of H4(1-21) peptide, filter plate scintillation)
Conditions: 10 nM PRMT5/MEP50 complex, 200 nM H4(1-21) peptide, 1 uM SAM, 25 minute incubation at room temperature
Outline: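 Human PRMT5/MEP50 complex (10 nM) methylating H4(1-21) peptide (200 nM) with 3H/unlabelled SAM (1 uM final) in pH 8.5 Tris buffer, 25 min at room temperature. Stopped with TCA, 3H-peptide captured on filter plates and scintillation-counted. IC50 from 4-parameter fit.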

Sequence of PRMT5/MEP50 protein complex (O14744 other isoform, or with tags, fused parts or gaps): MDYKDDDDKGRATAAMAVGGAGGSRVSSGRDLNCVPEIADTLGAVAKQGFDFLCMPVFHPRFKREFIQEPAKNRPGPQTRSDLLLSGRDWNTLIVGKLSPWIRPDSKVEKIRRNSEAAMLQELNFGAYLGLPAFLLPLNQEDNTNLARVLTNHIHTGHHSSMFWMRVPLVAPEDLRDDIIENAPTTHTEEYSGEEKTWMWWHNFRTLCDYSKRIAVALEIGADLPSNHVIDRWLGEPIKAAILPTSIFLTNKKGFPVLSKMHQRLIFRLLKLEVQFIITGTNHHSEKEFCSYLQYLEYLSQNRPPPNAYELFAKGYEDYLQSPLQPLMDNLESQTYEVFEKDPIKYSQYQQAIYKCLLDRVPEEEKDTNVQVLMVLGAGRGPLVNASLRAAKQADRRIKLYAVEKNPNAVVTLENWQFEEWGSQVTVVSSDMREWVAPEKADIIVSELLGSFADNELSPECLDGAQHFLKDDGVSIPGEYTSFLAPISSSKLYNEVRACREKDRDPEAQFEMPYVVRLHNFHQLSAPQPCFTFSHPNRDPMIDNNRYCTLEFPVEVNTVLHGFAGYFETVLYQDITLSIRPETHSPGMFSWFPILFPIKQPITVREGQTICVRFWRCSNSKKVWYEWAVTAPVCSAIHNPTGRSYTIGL
Sequence of PRMT5/MEP50 protein complex (Q9BQA1 whole entry partner): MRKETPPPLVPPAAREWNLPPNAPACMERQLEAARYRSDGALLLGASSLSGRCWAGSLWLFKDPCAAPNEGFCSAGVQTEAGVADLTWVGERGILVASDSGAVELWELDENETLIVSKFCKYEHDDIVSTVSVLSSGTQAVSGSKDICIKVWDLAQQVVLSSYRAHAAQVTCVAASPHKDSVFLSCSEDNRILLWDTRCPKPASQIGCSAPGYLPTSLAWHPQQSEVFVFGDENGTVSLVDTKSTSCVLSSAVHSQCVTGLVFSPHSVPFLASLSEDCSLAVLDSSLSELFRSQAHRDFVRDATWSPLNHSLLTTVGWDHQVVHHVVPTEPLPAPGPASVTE

Row | SMILES | IC50
1 | Cc1ncnc2c1ccn2[C@@H]1C[C@H](Oc2cc(Cl)c(Cl)cc2OCCN)[C@@H](O)[C@H]1O [Example 151, (1S,2S,3S,5R)-3-(2-(2-aminoethoxy)-4,5-dichlorophenoxy)-5-(4-methyl-7H-pyrrolo[2,3-d]pyrimidin-7-yl)cyclopentane-1,2-diol] | 78 nM
2 | Cc1ncnc2c1ccn2[C@@H]1C[C@H](Oc2cccc3c2[C@@H](N)CC3)[C@@H](O)[C@H]1O [Example 141, (1S,2S,3S,5R)-3-(((S)-3-amino-2,3-dihydro-1H-inden-4-yl)oxy)-5-(4-methyl-7H-pyrrolo[2,3-d]pyrimidin-7-yl)cyclopentane-1,2-diol] | 3930 nM
3 | Cc1ncc(O[C@H]2C[C@@H](n3ccc4c(C)ncnc43)[C@H](O)[C@@H]2O)c2c1CCNC2 [Example 96, (1S,2S,3S,5R)-3-((1-methyl-5,6,7,8-tetrahydro-2,6-naphthyridin-4-yl)oxy)-5-(4-methyl-7H-pyrrolo[2,3-d]pyrimidin-7-yl)cyclopentane-1,2-diol] | 19 nM
4 | CO[C@@H]1C[C@H](n2ccc3c(C)ncnc32)[C@@H](O)[C@H]1O [Example 61, (1R,2R,3R,5S)-3-methoxy-5-(4-methyl-7H-pyrrolo[2,3-d]pyrimidin-7-yl)cyclopentane-1,2-diol] | 2120 nM
5 | Cc1cn([C@@H]2C[C@H](Oc3cc(F)c(F)c4c3CNCC4)[C@@H](O)[C@H]2O)c2ncnc(N)c12 [Example 179, (1S,2S,3R,5S)-3-(4-amino-5-methyl-7H-pyrrolo[2,3-d]pyrimidin-7-yl)-5-((5,6-difluoro-1,2,3,4-tetrahydroisoquinolin-8-yl)oxy)cyclopentane-1,2-diol] | 1 nM
6 | Cc1ncnc2c1ccn2[C@@H]1C[C@H](Oc2cc(OC(C)C)c(F)c3c2CNCC3)[C@@H](O)[C@H]1O [Example 201, (1S,2S,3S,5R)-3-((5-fluoro-6-isopropoxy-1,2,3,4-tetrahydroisoquinolin-8-yl)oxy)-5-(4-methyl-7H-pyrrolo[2,3-d]pyrimidin-7-yl)cyclopentane-1,2-diol] | 310 nM
7 | Cc1ncnc2c1ccn2[C@@H]1C[C@H](Oc2cccc3c2C(=O)NCCO3)[C@@H](O)[C@H]1O [Example 163, 6-(((1S,2S,3S,4R)-2,3-dihydroxy-4-(4-methyl-7H-pyrrolo[2,3-d]pyrimidin-7-yl)cyclopentyl)oxy)-3,4-dihydrobenzo[f][1,4]oxazepin-5(2H)-one] | > 200000 nM
8 | Cc1ncnc2c1ccn2[C@@H]1C[C@H](C2(O)CC2)[C@@H](O)[C@H]1O [Example 17, (1S,2R,3S,5R)-3-(1-hydroxycyclopropyl)-5-(4-methyl-7H-pyrrolo[2,3-d]pyrimidin-7-yl)cyclopentane-1,2-diol] | 2770 nM
9 | Cc1cc(O[C@H]2C[C@@H](n3cc(F)c4c(N)ncnc43)[C@H](O)[C@@H]2O)c2c(c1F)CCNC2 [Example 113, (1S,2S,3R,5S)-3-(4-amino-5-fluoro-7H-pyrrolo[2,3-d]pyrimidin-7-yl)-5-((5-fluoro-6-methyl-1,2,3,4-tetahydroisoquinolin-8-yl)oxy)cyclopentane-1,2-diol] | 1 nM
10 | Cc1ncnc2c1ccn2[C@H]1C[C@@H](Oc2ccc(F)cc2CN)[C@H](O)[C@@H]1O [Example 67, (1R,2R,3R,5S)-3-(2-(aminomethyl)-4-fluorophenoxy)-5-(4-methyl-7H-pyrrolo[2,3-d]pyrimidin-7-yl)cyclopentane-1,2-diol] | > 200000 nM
11 | CC(F)(F)c1cc2c(c(O[C@H]3C[C@@H](n4cc(F)c5c(N)ncnc54)[C@H](O)[C@@H]3O)c1)CNCC2 [Example 112, (1S,2S,3R,5S)-3-(4-amino-5-fluoro-7H-pyrrolo[2,3-d]pyrimidin-7-yl)-5-((6-(1,1-difluoroethyl)-1,2,3,4-tetrahydroisoquinolin-8-yl)oxy)cyclopentane-1,2-diol] | 4 nM
12 | Cc1ncnc2c1ccn2[C@@H]1C[C@H](Oc2cc(C(F)F)c(F)c3c2CNCC3)[C@@H](O)[C@H]1O [Example 190, (1S,2S,3S,5R)-3-((6-(difluoromethyl)-5-fluoro-1,2,3,4-tetrahydroisoquinolin-8-yl)oxy)-5-(4-methyl-7H-pyrrolo[2,3-d]pyrimidin-7-yl)cyclopentane-1,2-diol] | 1 nM
13 | Cc1ncnc2c1ccn2[C@@H]1C[C@H]([C@H](O)c2ccc(F)cc2)[C@@H](O)[C@H]1O [Example 9, (1S,2R,3R,5R)-3-[(S)-(4-fluorophenyl) (hydroxy)methyl]-5-(4-methyl-7H-pyrrolo[2,3-d]pyrimidin-7-yl)cyclopentane-1,2-diol] | 60 nM
14 | Cc1ncnc2c1ccn2[C@@H]1C[C@H]([C@@H](O)c2ccc(Cl)cc2)[C@@H](O)[C@H]1O [Example 12, (1S,2R,3R,5R)-3-[(R)-(4-chlorophenyl) (hydroxy)methyl]-5-(4-methyl-7H-pyrrolo[2,3-d]pyrimidin-7-yl)cyclopentane-1,2-diol] | 478 nM
15 | Cc1ncnc2c1ccn2[C@@H]1C[C@H](Oc2cccc3c2CN[C@H](C)CO3)[C@@H](O)[C@H]1O [Example 208, (1S,2S,3S,5R)-3-(((R)-3-methyl-2,3,4,5-tetrahydrobenzo[f][1,4]oxazepin-6-yl)oxy)-5-(4-methyl-7H-pyrrolo[2,3-d]pyrimidin-7-yl)cyclopentane-1,2-diol] | 8 nM
16 | CCOc1cc(O[C@H]2C[C@@H](n3ccc4c(C)ncnc43)[C@H](O)[C@@H]2O)c2c(c1F)CCNC2 [Example 199, (1S,2S,3S,5R)-3-((6-ethoxy-5-fluoro-1,2,3,4-tetrahydroisoquinolin-8-yl)oxy)-5-(4-methyl-7H-pyrrolo[2,3-d]pyrimidin-7-yl)cyclopentane-1,2-diol] | 91 nM

Continued, values first:

Row | IC50 | SMILES
17 | 676 nM | Cc1ncnc2c1ccn2[C@@H]1C[C@H]([C@H](CN)c2ccc(F)cc2)[C@@H](O)[C@H]1O [Example 51, (1S,2R,3R,5R)-3-[(1S)-2-amino-1-(4-fluorophenyl)ethyl]-5-(4-methyl-7H-pyrrolo[2,3-d]pyrimidin-7-yl)cyclopentane-1,2-diol]
18 | 22 nM | CNCc1cc(F)ccc1O[C@H]1C[C@@H](n2ccc3c(C)ncnc32)[C@H](O)[C@@H]1O [Example 72, (1S,2S,3S,5R)-3-(4-fluoro-2-((methylamino)methyl)phenoxy)-5-(4-methyl-7H-pyrrolo[2,3-d]pyrimidin-7-yl)cyclopentane-1,2-diol]
19 | 3580 nM | Cc1cc(N(C)[C@@H]2C[C@H]([C@H](O)c3ccc(F)c(F)c3)[C@@H](O)[C@H]2O)ncn1 [Example 33, (1S,2R,3R,5R)-3-[(S)-(3,4-difluorophenyl)(hydroxy)methyl]-5-[methyl(6-methylpyrimidin-4-yl)amino] cyclopentane-1,2-diol]
20 | 114 nM | CN(c1ccnc(N)n1)[C@@H]1C[C@H]([C@H](O)c2ccc(F)c(F)c2)[C@@H](O)[C@H]1O [Example 39, (1R,2S,3R,5R)-3-[(2-aminopyrimidin-4-yl)(methyl)amino]-5-[(S)-(3,4-difluorophenyl)(hydroxy)methyl] cyclopentane-1,2-diol]
21 | > 200000 nM | N#Cc1cccc2c(N[C@@H]3C[C@H](C(O)c4ccc(F)c(F)c4)[C@@H](O)[C@H]3O)ncnc12 (single isomer, unassigned) [Example 30, 4-({(1R;2S;3R;4R)-4-[(3;4-difluorophenyl)(hydroxy)methyl]-2;3-dihydroxycyclopentyl}amino)quinazoline-8-carbonitrile]
22 | 257 nM | CN1CCc2c(cccc2O[C@H]2C[C@@H](n3cc(F)c4c(N)ncnc43)[C@H](O)[C@@H]2O)C1 [Example 116, (1S,2S,3R,5S)-3-(4-amino-5-fluoro-7H-pyrrolo[2,3-d]pyrimidin-7-yl)-5-((2-methyl-1,2,3,4-tetrahydroisoquinolin-5-yl)oxy)cyclopentane-1,2-diol]
23 | 11 nM | Cc1ncnc2c1ccn2[C@@H]1C[C@H](Oc2ccc(F)c(F)c2CN)[C@@H](O)[C@H]1O [Example 145, (1S,2S,3S,5R)-3-(2-(aminomethyl)-3,4-difluorophenoxy)-5-(4-methyl-7H-pyrrolo[2,3-d]pyrimidin-7-yl)cyclopentane-1,2-diol]
24 | 906 nM | Cc1ncnc2c1ccn2[C@@H]1C[C@H]([C@@H](CN)c2ccc(F)cc2)[C@@H](O)[C@H]1O [Example 52, (1S,2R,3R,5R)-3-[(1R)-2-amino-1-(4-fluorophenyl)ethyl]-5-(4-methyl-7H-pyrrolo[2,3-d]pyrimidin-7-yl)cyclopentane-1,2-diol]
25 | 10200 nM | Cc1ncnc2c1ccn2[C@@H]1C[C@H](Oc2ccc(F)cc2CO)[C@@H](O)[C@H]1O [Example 135, (1S,2S,3S,5R)-3-(4-fluoro-2-(hydroxymethyl)phenoxy)-5-(4-methyl-7H-pyrrolo[2,3-d]pyrimidin-7-yl)cyclopentane-1,2-diol]
26 | 59500 nM | Cc1cc(N(C)[C@@H]2C[C@H]([C@@H](O)c3ccc(F)c(F)c3)[C@@H](O)[C@H]2O)ncn1 [Example 34, (1S,2R,3R,5R)-3-[(R)-(3,4-difluorophenyl)(hydroxy)methyl]-5-[methyl(6-methylpyrimidin-4-yl)amino] cyclopentane-1,2-diol]
27 | > 200000 nM | N#Cc1cccc2c(N[C@@H]3C[C@H](C(O)c4ccc(F)c(F)c4)[C@@H](O)[C@H]3O)ncnc12 (single isomer, unassigned) [Example 29, 4-({(1R;2S;3R;4R)-4-[(3;4-difluorophenyl)(hydroxy)methyl]-2;3-dihydroxycyclopentyl}amino)quinazoline-8-carbonitrile]
28 | 48 nM | Cc1ncnc2c1ccn2[C@@H]1C[C@H]([C@@H](O)c2cccc3c2CNCC3)[C@@H](O)[C@H]1O [Example 57, (1S,2R,3R,5R)-3-((R)-hydroxy(1,2,3,4-tetrahydroisoquinolin-8-yl)methyl)-5-(4-methyl-7H-pyrrolo[2,3-d]pyrimidin-7-yl)cyclopentane-1,2-diol]
29 | > 200000 nM | Cc1ncnc2c1ccn2[C@H]1C[C@@H](Oc2ccc(F)cc2C#N)[C@H](O)[C@@H]1O [Example 69, 2-(((1R,2R,3R,4S)-2,3-dihydroxy-4-(4-methyl-7H-pyrrolo[2,3-d]pyrimidin-7-yl)cyclopentyl)oxy)-5-fluorobenzonitrile]
